The numbers were not newly measured in patent US20240000780A1, “PED5 INHIBITOR SEMI-SOLID COMPOSITIONS AND METHODS OF MAKING AND USING THEREOF” (Seattle Gummy Company, priority 2021, published 2024), which cites them from elsewhere.

The conditions of this data set: ranking among alpha, beta, gamma cyclodextrins.

With `OC[C@H]1O[C@@H]2O[C@H]3[C@H](O)[C@@H](O)[C@@H](O[C@H]4[C@H](O)[C@@H](O)[C@@H](O[C@H]5[C@H](O)[C@@H](O)[C@@H](O[C@H]6[C@H](O)[C@@H](O)[C@@H](O[C@H]7[C@H](O)[C@@H](O)[C@@H](O[C@H]1[C@H](O)[C@H]2O)O[C@@H]7CO)O[C@@H]6CO)O[C@@H]5CO)O[C@@H]4CO)O[C@@H]3CO` [alpha, alpha-cyclodextrin], the “stability of complex formed with tadalafil” value is on record as “least stable”.

Regarding `OC[C@H]1O[C@@H]2O[C@H]3[C@H](O)[C@@H](O)[C@@H](O[C@H]4[C@H](O)[C@@H](O)[C@@H](O[C@H]5[C@H](O)[C@@H](O)[C@@H](O[C@H]6[C@H](O)[C@@H](O)[C@@H](O[C@H]7[C@H](O)[C@@H](O)[C@@H](O[C@H]8[C@H](O)[C@@H](O)[C@@H](O[C@H]9[C@H](O)[C@@H](O)[C@@H](O[C@H]1[C@H](O)[C@H]2O)O[C@@H]9CO)O[C@@H]8CO)O[C@@H]7CO)O[C@@H]6CO)O[C@@H]5CO)O[C@@H]4CO)O[C@@H]3CO` [gamma, gamma-cyclodextrin], the “stability of complex formed with tadalafil” value is on record as “most stable complex”.
